Experimental data reported in patent publication US20170119776A1, “CHIRAL 2,5-DISUBSTITUTED CYCLOPENTANECARBOXYLIC ACID DERIVATIVES AND USE THEREOF” (BAYER PHARMA AKTIENGESELLSCHAFT, priority 2014, published 2017).

Assays:
Assay type in all cases: biochemical
MMP-2 of the rat = assay: In vitro MMP-2 inhibition test of the rat
Excerpt: (§1) The activity strength of the compounds according to the invention towards other MMPs (and therefore their selectivity) is likewise ascertained in in vitro inhibition tests. The MMP-mediated amidolytic cleavage of a suitable peptide substrate also leads here to a fluorescent light increase. The signal intensity of the fluorescent light is directly proportional to the enzyme activity. The active concentration of a test compound at which half of the enzyme is inhibited (50% signal intensity of the fluorescent light) is given as IC50 value.
Recombinant MMP-2 of the rat (R&D Systems, 924-MP) is chemically activated in accordance with the manufacturer's instructions using APMA. […] of the test compound to be analysed (as a solution in DMSO, suitable concentrations e.g. 1 nM to 30 μM) is pipetted into 24 μl of activated enzyme (final concentration e.g. 1 nM) in reaction buffer (50 mM Tris/HCl pH 7.5, 10 mM CaCl2, 150 mM NaCl, 0.05% Brij®-35) in a white 384-hole microtiter plate (MTP). The enzymatic reaction is started by adding the intramolecularly quenched substrate Mca-Pro-Leu-Gly-Leu-Dpa(Dnp)-Ala-Arg-NH2 (final concentration e.g. 10 μM; R&D Systems, ES-001), such that a total test volume of 50 μl results. The progress of the MMP-2 reaction is measured by measuring the fluorescence intensity (excitation 320 nm, emission 410 nm) over a suitable period (e.g. over 120 min at a temperature of 32° C.).
Tables 3A and 3B below give the IC50 values from these tests for the inhibition of rodent MMPs for representative embodiment examples of the present invention and also for two structurally related comparison compounds from the prior art (as racemate and separated enantiomer)→(in part as average values from several independent individual determinations and rounded to two significant places). The IC50 values were determined for racemates and enantiomers from differently generated DMSO stock solutions. Whereas an automatically created DMSO stock solution from the internal substance logistics was used for racemates by means of a standard method, in the case of enantiomers, in each case a freshly produced, manually prepared DMSO stock solution was used for a more precise direct comparison of the enantiomers with one another.

MMP-7 = target: T1, MMP-7 (Homo sapiens, UniProt P09237); assay: In vitro MMP-7 inhibition test
T1 construct: purchased R&D Systems 907-MP
T1 sequence (P09237 95-267): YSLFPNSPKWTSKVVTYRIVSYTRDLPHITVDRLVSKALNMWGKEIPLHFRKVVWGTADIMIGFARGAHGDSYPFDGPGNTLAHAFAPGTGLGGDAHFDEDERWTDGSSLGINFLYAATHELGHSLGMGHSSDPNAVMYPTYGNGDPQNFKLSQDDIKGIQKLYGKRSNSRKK
Excerpt: as §1
Recombinant MMP-7 (R&D Systems, 907-MP) is chemically activated in accordance with the manufacturer's instructions using APMA. 1 μl of the test compound to be analysed (as a solution in DMSO, suitable concentrations e.g. 1 nM to 30 μM) is pipette into 24 μl of activated enzyme (final concentration e.g. 0.5 nM) in reaction buffer (50 mM Tris/HCl pH 7.5, 10 mM CaCl2, 150 mM NaCl, 0.05% Brij®-35) in a white 384-hole microtiter plate (MTP). The enzymatic reaction is started by adding the intramolecularly quenched substrate Mca-Pro-Leu-Gly-Leu-Dpa(Dnp)-Ala-Arg-NH2 (final concentration e.g. 10 μM; R&D Systems, ES-001), such that a total test volume of 50 μl results. The progress of the MMP-7 reaction is measured by measuring the fluorescence intensity (excitation 320 nm, emission 410 nm) over a suitable period (e.g. over 120 min at a temperature of 32° C.).
(§2) The IC50 values were determined for racemates and enantiomers from differently generated DMSO stock solutions. Whereas an automatically produced DMSO stock solution from the internal substance logistics was used for racemates by means of a standard method, in the case of enantiomers a freshly produced, manually prepared DMSO stock solution was used in each case for a more precise direct comparison of the enantiomers with one another.

MMP-1 = target: T2, MMP-1 (Homo sapiens, UniProt P03956); assay: In vitro MMP-1 inhibition test
T2 construct: purchased R&D Systems 901-MP
T2 sequence (P03956 100-469): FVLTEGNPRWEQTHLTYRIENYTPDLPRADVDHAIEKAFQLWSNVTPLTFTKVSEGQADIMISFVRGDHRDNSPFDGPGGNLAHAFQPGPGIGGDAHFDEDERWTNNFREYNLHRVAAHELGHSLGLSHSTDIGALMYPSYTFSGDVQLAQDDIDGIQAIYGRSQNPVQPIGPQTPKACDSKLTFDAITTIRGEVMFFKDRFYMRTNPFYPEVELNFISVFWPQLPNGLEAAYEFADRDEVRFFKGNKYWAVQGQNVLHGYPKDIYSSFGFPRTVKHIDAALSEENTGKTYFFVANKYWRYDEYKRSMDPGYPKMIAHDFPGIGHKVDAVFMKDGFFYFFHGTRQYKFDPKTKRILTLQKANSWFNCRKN
Excerpt: as §1
Recombinant MMP-1 (R&D Systems, 901-MP) is chemically activated in accordance with the manufacturer's instructions by using APMA. 1 μl of the test compound to be analysed (as a solution in DMSO, suitable concentrations e.g. 1 nM to 30 μM) is pipetted into 24 μl of activated enzyme (final concentration e.g. 2 nM) in reaction buffer (50 mM Tris/HCl pH 7.5, 10 mM CaCl2, 150 mM NaCl, 0.05% Brij®-35) in a white 384-hole microtiter plate (MTP). The enzymatic reaction is started by adding the intramolecularly quenched substrate Mca-Pro-Leu-Gly-Leu-Dpa(Dnp)-Ala-Arg-NH2 (final concentration e.g. 10 μM; R&D Systems, ES-001), such that a total test volume of 50 μl results. The progress of the MMP-1 reaction is measured by measuring the fluorescence intensity (excitation 320 nm, emission 410 nm) over a suitable period (e.g. over 120 min at a temperature of 32° C.).
as §2

| IC50 (MMP-2 of the rat) [nM] | IC50 (MMP-7) [nM] | IC50 (MMP-1) [nM] | Compound |
| --- | --- | --- | --- |
| 145 | 22500 | > 40000 | CCCCCOc1ccc(C(=O)CC(CCn2nnc3ccccc3c2=O)C(=O)O)cc1 (single isomer, unassigned; enantiomer 1) [Comparative Example B-2, (+)-4-Oxo-2-[2-(4-oxo-1,2,3-benzotriazin-3(4H)-yl)ethyl]-4-[4-(pentyloxy)phenyl]butanoic acid (enantiomer 1)] |
| 16.5 | 420 | 5800 | O=C(O)[C@H]1[C@H](Cn2nnc3ccccc3c2=O)CC[C@@H]1C(=O)c1ccc(OCc2ccccc2)cc1 [Example 2, (+)-(1S,2S,5R)-2-[4-(Benzyloxy)benzoyl]-5-[(4-oxo-1,2,3-benzotriazin-3(4H)-yl)methyl]cyclopentanecarboxylic acid] |
| < 0.61 | 145 | 135 | O=C(O)[C@@H]1[C@@H](Cn2nnc3ccccc3c2=O)CC[C@H]1C(=O)c1ccc(-c2ccc(Cl)cc2)cc1 (single isomer, unassigned; enantiomer 2) [Comparative Example A-3, (1RS,2RS,5SR)-2-[(4′-Chlorobiphenyl-4-yl)carbonyl]-5-[(4-oxo-1,2,3-benzotriazin-3(4H)-yl)methyl]cyclopentanecarboxylic acid (enantiomer 2)] |
| 610 | > 40000 | > 40000 | CCCCCOc1ccc(C(=O)CC(CCn2nnc3ccccc3c2=O)C(=O)O)cc1 (racemic) [Comparative Example B-1, (+/−)-4-Oxo-2-[2-(4-oxo-1,2,3-benzotriazin-3(4H)-yl)ethyl]-4-[4-(pentyloxy)phenyl]butanoic acid (racemate)] |
| 1.3 | 310 | 220 | O=C(O)[C@H]1[C@H](Cn2nnc3ccccc3c2=O)CC[C@@H]1C(=O)c1ccc(-c2ccc(Cl)cc2)cc1 (racemic) [Comparative Example A-1, (1RS,2RS,5SR)-2-[(4′-chlorobiphenyl-4-yl)carbonyl]-5-[(4-oxo-1,2,3-benzotriazin-3(4H)-yl)methyl]cyclopentanecarboxylic acid (racemate)] |
| 33 | 500 | 12000 | O=C(O)[C@H]1[C@H](Cn2nnc3ccccc3c2=O)CC[C@@H]1C(=O)c1ccc(OCc2ccccc2)cc1 (racemic) [Example 1, (+/−)-(1RS,2RS,5SR)-2-[4-(Benzyloxy)benzoyl]-5-[(4-oxo-1,2,3-benzotriazin-3(4H)-yl)methyl]cyclopentanecarboxylic acid (racemate)] |
